{"source": "patent US11660303B2", "about": "“2-phenylimidazo[4,5-b]pyridin-7-amine derivates useful as inhibitors of mammalian tyrosine kinase ROR1 activity” (KANCERA AB, priority 2016, dated 2023)", "key": {"PBMC from CLL patients": {"tested_on": "PBMC from CLL patients", "assay": "CellTiter-Blue Cell Viability Assay, PBMC from CLL patients", "assay_type": "cell-based", "settings": "Homo sapiens, cell toxicity, culture 24, 48 and 72 h (time of the values not stated)", "procedure": "(§1) The CellTiter-Blue® Cell Viability Assay provides a homogeneous, fluorometric method for estimating the number of viable cells present in multi-well plates. The assay uses the indicator dye resazurin to measure the metabolic capacity of cells. Viable cells retain the ability to reduce resazurin into resorufin, which is highly fluorescent.\n(§2) Stock solutions (10 or 100 mM in DMSO) of compounds were serially diluted 1:2 in 11 concentrations and 25 nL/well (100 mM stock) or 50 nL/well (10 mM stock) were acoustically dispensed in assay plates with an EDC acoustic dispenser. Final starting concentration in the assay was 20 μM (0.2% DMSO) or 100 μM (0.1% DMSO) for test compounds.\n(§3) Peripheral blood mononuclear cells (PBMC) from CLL patients or healthy volunteers were seeded in assay plates (384-well black/clear, Greiner #781091) pre-dispensed with compounds, 25 μL/well, and cultured for 24, 48 and 72 h. The cell concentration was 50 000 cells/well for PBMC from CLL patients or healthy volunteers. After 24, 48 and 72 h culture, Celltiter Blue reagent was added (5 μL/well) and the plates were incubated for 2 h. The plates were read in an Envision fluorescence reader (PerkinElmer) with Ex544 nm/Em590 nm. Results were calculated as % cytotoxicity compared to background (cells treated with 0.2% DMSO).\n(§4) Thus, IC50 values for cell toxicity in PBMC from CLL patients as well as healthy volunteers for some compounds of the invention are shown in Table 3 as measured by the CellTiter-Blue® Cell Viability Assay."}, "[1]": {"tested_on": "PBMC from healthy volunteers", "assay": "CellTiter-Blue Cell Viability Assay, PBMC from healthy volunteers", "assay_type": "cell-based", "settings": "Homo sapiens, cell toxicity, culture 24, 48 and 72 h (time of the values not stated)", "procedure": "as §1, §2, §3, §4"}}, "note": "pIC50: −log10 of the molar value.", "data": [{"smiles": "COCCC1CCN(c2ccc(-c3nc4c(NC5CCN(C)CC5)c(Cl)cnc4[nH]3)cc2)CC1", "note": "[Example 281, 6-Chloro-2-{4-[4-(2-methoxyethyl)piperidin-1-yl]phenyl}-N-(1-methylpiperidin-4-yl)-3H-imidazo[4,5-b]pyridin-7-amine]", "values": [{"measurement": "pIC50", "setting": "PBMC from CLL patients", "value": 7.22}, {"measurement": "pIC50", "setting": "[1]", "value": 5.08}]}, {"smiles": "COCCN1CCN(c2ccc(-c3nc4c(NC5CCN(C(C)C)CC5)c(Cl)cnc4[nH]3)cc2OC)CC1", "note": "[Example 387, 6-Chloro-2-{3-methoxy-4-[4-(2-methoxyethyl)piperazin-1-yl]phenyl}-N-[1-(1-methylethyl)piperidin-4-yl]-3H-imidazo[4,5-b]pyridin-7-amine]", "values": [{"measurement": "pIC50", "setting": "PBMC from CLL patients", "value": 5.89}, {"measurement": "pIC50", "setting": "[1]", "value": "< 4.70"}]}, {"smiles": "CC(C)N1CCC(Nc2c(Br)cnc3[nH]c(-c4ccc(N5CCN(Cc6ccncc6)CC5)cc4)nc23)CC1", "note": "[Example 151, 6-Bromo-N-[1-(1-methylethyl)piperidin-4-yl]-2-{4-[4-(pyridin-4-ylmethyl)piperazin-1-yl]phenyl}-3H-imidazo[4,5-b]pyridin-7-amine]", "values": [{"measurement": "pIC50", "setting": "PBMC from CLL patients", "value": 6.41}, {"measurement": "pIC50", "setting": "[1]", "value": 4.86}]}, {"smiles": "COCCN1CCN(c2ccc(-c3nc4c(NC5CCN(C)CC5)c(Cl)cnc4[nH]3)cc2F)CC1", "note": "[Example 372, 6-Chloro-2-{3-fluoro-4-[4-(2-methoxyethyl)piperazin-1-yl]phenyl}-N-(1-methylpiperidin-4-yl)-3H-imidazo[4,5-b]pyridin-7-amine]", "values": [{"measurement": "pIC50", "setting": "PBMC from CLL patients", "value": 6.51}, {"measurement": "pIC50", "setting": "[1]", "value": "< 4.70"}]}, {"smiles": "COCCN1CCN(c2ccc(-c3nc4c(NC5CCN(C)CC5)c(Cl)cnc4[nH]3)cc2OC)CC1", "note": "[Example 381, 6-Chloro-2-{3-methoxy-4-[4-(2-methoxyethyl)piperazin-1-yl]phenyl}-N-(1-methylpiperidin-4-yl)-3H-imidazo[4,5-b]pyridin-7-amine]", "values": [{"measurement": "pIC50", "setting": "PBMC from CLL patients", "value": 6.40}, {"measurement": "pIC50", "setting": "[1]", "value": "< 4.70"}]}, {"smiles": "CN1CC[C@H](Nc2c(Br)cnc3[nH]c(-c4ccc(N5CCN(Cc6cncnc6)CC5)cc4)nc23)C1", "note": "[Example 157, 6-Bromo-N-[(3S)-1-methylpyrrolidin-3-yl]-2-{4-[4-(pyrimidin-5-ylmethyl)piperazin-1-yl]phenyl}-3H-imidazo[4,5-b]pyridin-7-amine]", "values": [{"measurement": "pIC50", "setting": "PBMC from CLL patients", "value": 6.54}, {"measurement": "pIC50", "setting": "[1]", "value": "< 4.70"}]}, {"smiles": "COCCC(=O)N1CCN(c2ccc(-c3nc4c(NC5CCN(C)CC5)c(Cl)cnc4[nH]3)cc2)CC1", "note": "[Example 276, 6-Chloro-2-{4-[4-(3-methoxypropanoyl)piperazin-1-yl]phenyl}-N-(1-methylpiperidin-4-yl)-3H-imidazo[4,5-b]pyridin-7-amine]", "values": [{"measurement": "pIC50", "setting": "PBMC from CLL patients", "value": 7.30}, {"measurement": "pIC50", "setting": "[1]", "value": "< 4.70"}]}, {"smiles": "CCOCCN1CCN(c2ccc(-c3nc4c(NC5CC(C)(C)N(C)C(C)(C)C5)c(Br)cnc4[nH]3)cc2)CC1=O", "note": "[Example 342, 4-(4-{6-Bromo-7-[(1,2,2,6,6-pentamethylpiperidin-4-yl)amino]-3H-imidazo[4,5-b]pyridin-2-yl}phenyl)-1-(2-ethoxyethyl)piperazin-2-one]", "values": [{"measurement": "pIC50", "setting": "PBMC from CLL patients", "value": 7.40}, {"measurement": "pIC50", "setting": "[1]", "value": "< 4.70"}]}, {"smiles": "CN1CCC(Nc2c(Br)cnc3[nH]c(-c4ccc(N5CCN(CCCO)CC5)cc4)nc23)CC1", "note": "[Example 268, 3-[4-(4-{6-Bromo-7-[(1-methylpiperidin-4-yl)amino]-3H-imidazo[4,5-b]pyridin-2-yl}phenyl)piperazin-1-yl]propan-1-ol]", "values": [{"measurement": "pIC50", "setting": "PBMC from CLL patients", "value": 8.00}, {"measurement": "pIC50", "setting": "[1]", "value": "< 4.70"}]}, {"smiles": "CCN1CCC(Nc2c(Br)cnc3[nH]c(-c4ccc(N5CCN(C(=O)c6ccncc6)CC5)cc4)nc23)CC1", "note": "[Example 331, 6-Bromo-N-(1-ethylpiperidin-4-yl)-2-{4-[4-(pyridin-4-ylcarbonyl)piperazin-1-yl]phenyl}-3H-imidazo[4,5-b]pyridin-7-amine]", "values": [{"measurement": "pIC50", "setting": "PBMC from CLL patients", "value": 6.72}, {"measurement": "pIC50", "setting": "[1]", "value": "< 4.70"}]}, {"smiles": "COCCCN1CCN(c2ccc(-c3nc4c(NC5CCN(C(C)C)CC5)c(Cl)cnc4[nH]3)cc2)CC1=O", "note": "[Example 246, 4-[4-(6-Chloro-7-{[1-(1-methylethyl)piperidin-4-yl]amino}-3H-imidazo[4,5-b]pyridin-2-yl)phenyl]-1-(3-methoxypropyl)piperazin-2-one]", "values": [{"measurement": "pIC50", "setting": "PBMC from CLL patients", "value": 6.96}, {"measurement": "pIC50", "setting": "[1]", "value": "< 4.70"}]}, {"smiles": "COc1ccc(CN2CCC(Nc3c(Cl)cnc4[nH]c(-c5ccc(N6CCN(C(C)=O)CC6)cc5)nc34)CC2)cc1", "note": "[Example 35, 2-[4-(4-Acetylpiperazin-1-yl)phenyl]-6-chloro-N-[1-(4-methoxybenzyl)piperidin-4-yl]-3H-imidazo[4,5-b]pyridin-7-amine]", "values": [{"measurement": "pIC50", "setting": "PBMC from CLL patients", "value": 6.37}, {"measurement": "pIC50", "setting": "[1]", "value": "< 4.70"}]}, {"smiles": "CCN1CCC(Nc2c(Br)cnc3[nH]c(-c4ccc(N5CCN(C(=O)COC)CC5)cc4)nc23)CC1", "note": "[Example 239, 6-Bromo-N-(1-ethylpiperidin-4-yl)-2-{4-[4-(methoxyacetyl)piperazin-1-yl]phenyl}-3H-imidazo[4,5-b]pyridin-7-amine]", "values": [{"measurement": "pIC50", "setting": "PBMC from CLL patients", "value": 7.00}, {"measurement": "pIC50", "setting": "[1]", "value": "< 4.70"}]}, {"smiles": "CN1CCC(Nc2c(Cl)cnc3[nH]c(-c4ccc(N5CCN(Cc6ccccc6)C(=O)C5)cc4)nc23)CC1", "note": "[Example 291, 1-Benzyl-4-(4-{6-chloro-7-[(1-methylpiperidin-4-yl)amino]-3H-imidazo[4,5-b]pyridin-2-yl}phenyl)piperazin-2-one]", "values": [{"measurement": "pIC50", "setting": "PBMC from CLL patients", "value": 7.40}, {"measurement": "pIC50", "setting": "[1]", "value": 5.19}]}, {"smiles": "CCN1CCC(Nc2c(Br)cnc3[nH]c(-c4ccc(N5CCN(C(=O)c6cccnc6)CC5)cc4)nc23)CC1", "note": "[Example 304, 6-Bromo-N-(1-ethylpiperidin-4-yl)-2-{4-[4-(pyridin-3-ylcarbonyl)piperazin-1-yl]phenyl}-3H-imidazo[4,5-b]pyridin-7-amine]", "values": [{"measurement": "pIC50", "setting": "PBMC from CLL patients", "value": 7.22}, {"measurement": "pIC50", "setting": "[1]", "value": "< 4.70"}]}, {"smiles": "COCCN1CCCN(c2ccc(-c3nc4c(NC5CCN(C(C)C)CC5)c(Cl)cnc4[nH]3)cc2)CC1", "note": "[Example 63, 6-Chloro-2-{4-[4-(2-methoxyethyl)-1,4-diazepan-1-yl]phenyl}-N-[1-(1-methylethyl)piperidin-4-yl]-3H-imidazo[4,5-b]pyridin-7-amine]", "values": [{"measurement": "pIC50", "setting": "PBMC from CLL patients", "value": 6.02}, {"measurement": "pIC50", "setting": "[1]", "value": "< 4.70"}]}, {"smiles": "CN1CCC(Nc2c(Cl)cnc3[nH]c(-c4ccc(N5CCCN(C)CC5)cc4)nc23)CC1", "note": "[Example 22, 6-Chloro-2-[4-(4-methyl-1,4-diazepan-1-yl)phenyl]-N-(1-methylpiperidin-4-yl)-3H-imidazo[4,5-b]pyridin-7-amine]", "values": [{"measurement": "pIC50", "setting": "PBMC from CLL patients", "value": 6.77}, {"measurement": "pIC50", "setting": "[1]", "value": 4.73}]}, {"smiles": "CN1CCC(Nc2c(Cl)cnc3[nH]c(-c4ccc(N5CCOCC5)cc4)nc23)CC1", "note": "[Example 27, 6-Chloro-N-(1-methylpiperidin-4-yl)-2-(4-morpholin-4-ylphenyl)-3H-imidazo[4,5-b]pyridin-7-amine]", "values": [{"measurement": "pIC50", "setting": "PBMC from CLL patients", "value": 7.05}, {"measurement": "pIC50", "setting": "[1]", "value": 4.75}]}, {"smiles": "CCOCCN1CCN(c2ccc(-c3nc4c(NC5CCN(CC)CC5)c(Cl)cnc4[nH]3)cc2)CC1", "note": "[Example 70, 6-Chloro-2-{4-[4-(2-ethoxyethyl)piperazin-1-yl]phenyl}-N-(1-ethylpiperidin-4-yl)-3H-imidazo[4,5-b]pyridin-7-amine]", "values": [{"measurement": "pIC50", "setting": "PBMC from CLL patients", "value": 6.80}, {"measurement": "pIC50", "setting": "[1]", "value": "< 4.70"}]}, {"smiles": "COc1ccc(CN2CCC(Nc3c(Cl)cnc4[nH]c(-c5ccc(N6CCN(S(C)(=O)=O)CC6)cc5)nc34)CC2)cc1", "note": "[Example 44, 6-Chloro-N-[1-(4-methoxybenzyl)piperidin-4-yl]-2-{4-[4-(methylsulfonyl)piperazin-1-yl]phenyl}-3H-imidazo[4,5-b]pyridin-7-amine]", "values": [{"measurement": "pIC50", "setting": "PBMC from CLL patients", "value": 6.36}, {"measurement": "pIC50", "setting": "[1]", "value": "< 4.70"}]}, {"smiles": "CN1CCC(Nc2c(Cl)cnc3[nH]c(-c4ccc(N5CCN(Cc6ccccn6)CC5)cc4)nc23)CC1", "note": "[Example 98, 6-Chloro-N-(1-methylpiperidin-4-yl)-2-{4-[4-(pyridin-2-ylmethyl)piperazin-1-yl]phenyl}-3H-imidazo[4,5-b]pyridin-7-amine]", "values": [{"measurement": "pIC50", "setting": "PBMC from CLL patients", "value": 7.22}, {"measurement": "pIC50", "setting": "[1]", "value": "< 4.70"}]}, {"smiles": "CCN1CCN(c2ccc(-c3nc4c(NC5CCN(C)CC5)c(Br)cnc4[nH]3)cc2)CC1", "note": "[Example 10, 6-Bromo-2-[4-(4-ethylpiperazin-1-yl)phenyl]-N-(1-methylpiperidin-4-yl)-3H-imidazo[4,5-b]pyridin-7-amine]", "values": [{"measurement": "pIC50", "setting": "PBMC from CLL patients", "value": 6.96}, {"measurement": "pIC50", "setting": "[1]", "value": "< 4.70"}]}]}
